From publication PMC6680226, “Peptoid Efficacy against Polymicrobial Biofilms Determined by Using Propidium Monoazide‐Modified Quantitative PCR” (Chembiochem, 2016)

Tests used:
[1] = test system: S. aureus (NCTC 6571) biofilm; assay: Crystal violet assay, S. aureus monospecies biofilm; format: cell-based, Staphylococcus aureus; details: peptoid 100 μM, 24 h treatment of 4 h biofilm; n=3
Experimental: (§1) Microorganism strains and growth conditions: C. albicans (NCTC 3179) was subcultured aerobically on Sabouraud agar plates, prepared by using Sabouraud dextrose powder and agar (Oxoid, ThermoFisher) and propagated in yeast peptone dextrose broth. E. coli (ATCC 29522) and S. aureus (NCTC 6571) were grown on blood agar plates (Fanin, Dublin, Ireland) and propagated in brain heart infusion (BHI) broth (Oxoid, ThermoFisher).
(§2) Preparation and treatment of single‐species biofilms: Overnight cultures of C. albicans were washed and resuspended (1.0×10^6 cells per mL) in RPMI‐1640 (Sigma–Aldrich). Overnight cultures of S. aureus or E. coli were washed and resuspended (5.0×10^6 cells per mL) in BHI broth. Samples (100 μL) were added to microtitre plate wells (Thermo Fisher Scientific), and a biofilm was allowed to form for 4 h. Wells were washed with PBS (3×200 μL) to facilitate removal of planktonic cells, and the biofilms were then treated with 1–18 (100 μM in the appropriate medium). Plates were incubated for a further 24 h to allow biofilm maturation. After removal of planktonic cells by washing, biofilms were quantified by the crystal violet assay or by PMA‐qPCR.
(§3) Biofilm quantification by crystal violet assay: Washed biofilms were fixed with methanol (100 μL) for 10 min. Following removal of methanol, the wells were air dried and stained with crystal violet solution (Clin‐Tech, Guildford, UK) for 20 min at room temperature. Excess stain was removed by washing, then the plate was air‐dried and bound crystal violet was re‐solubilised in acetic acid (33 %, 160 μL) prior to reading at 570 nm in a GENios microtitre plate reader (Tecan, Zürich, Switzerland).

[2] = test system: C. albicans monospecies biofilm; assay: PMA-qPCR viable cell number, C. albicans monospecies biofilm; format: cell-based, Candida albicans; details: peptoid 100 μM, 24 h; n=3
Experimental: as §2
(§4) Biofilm quantification by PMA‐modified qPCR: In order to determine the bactericidal and fungicidal activity of peptoids against single‐species and polymicrobial biofilms, the biofilms were detached from the microtitre plate wells prior to quantification. The wells were washed as above, then BHI broth (100 μL) was added and the plate was sealed. Biofilm detachment was achieved by sonication for 5 min in an ultrasonic bath (Dawe, Hayes, Middlesex, UK). The remaining cells were then collected in BHI (80 μL). […]
(§5) Generation of standard curves for PMA‐qPCR: For quantification of C. albicans, S. aureus and E. coli in single‐species and polymicrobial biofilms, DNA standards were prepared by extraction of DNA from planktonic organisms with the microLYSIS‐Plus kit and purification with a DNeasy kit (Qiagen). DNA standards (10^1–10^6 cells) were used in PMA‐qPCR assays to generate standard curves from which the numbers of living organisms within the biofilms could be determined.

[3] = test system: E. coli in polymicrobial biofilm with C. albicans; assay: PMA-qPCR, E. coli within C. albicans-E. coli polymicrobial biofilm; format: cell-based, Escherichia coli
Experimental: (§6) Preparation and treatment of polymicrobial biofilms: Overnight cultures of C. albicans were prepared in microtitre plates as above, and allowed to adhere for 4 h to facilitate initial biofilm formation. Planktonic C. albicans cells were removed as above before the addition of S. aureus or E. coli (100 μL, 5.0×10^6 cells per mL). Bacteria were allowed to adhere to the C. albicans biofilms for 4 h to facilitate polymicrobial biofilm formation. Following a washing step, the biofilms were then treated with peptoid (10–100 μM), and incubated for a further 24 h to allow biofilm maturation. Wells were washed as above, and the polymicrobial biofilms were quantified by PMA‐modified qPCR.
as §4, with “sealed.” for “sealed. Biofilm detachment was achieved by sonication for 5 min in an ultrasonic bath (Dawe, Hayes, Middlesex, UK). The remaining cells were then collected in BHI (80 μL).”
(§7) Generation of standard curves for PMA‐qPCR: For quantification of C. albicans, S. aureus and E. coli in single‐species and polymicrobial biofilms, DNA standards were prepared by extraction of DNA from planktonic organisms with the microLYSIS‐Plus kit and purification with a DNeasy kit (Qiagen). […]

[4] = test system: E. coli monospecies biofilm; assay: PMA-qPCR viable cell number, E. coli monospecies biofilm; format: cell-based, Escherichia coli; details: peptoid 100 μM, 24 h; n=3
Experimental: as §2, §4, §5

[5] = test system: S. aureus monospecies biofilm; assay: PMA-qPCR viable cell number, S. aureus monospecies biofilm; format: cell-based, Staphylococcus aureus; details: peptoid 100 μM, 24 h; n=3
Experimental: as §2
as §4, with “sealed.” for “sealed. Biofilm detachment was achieved by sonication for 5 min in an ultrasonic bath (Dawe, Hayes, Middlesex, UK). The remaining cells were then collected in BHI (80 μL).”
as §7

[6] = test system: S. aureus in polymicrobial biofilm with C. albicans; assay: PMA-qPCR, S. aureus within C. albicans-S. aureus polymicrobial biofilm; format: cell-based, Staphylococcus aureus; details: PMA-qPCR
Experimental: as §6
Biofilm quantification by PMA‐modified qPCR: In order to determine the bactericidal and fungicidal activity of peptoids against single‐species and polymicrobial biofilms, the biofilms were detached from the microtitre plate wells prior to quantification. The wells were washed as above, then BHI broth (100 μL) was added and the plate was sealed. Biofilm detachment was achieved by sonication for 5 min in an ultrasonic bath (Dawe, Hayes, Middlesex, UK). The remaining cells were then collected in BHI (80 μL). PMA (20 μL, 2 mM in broth;47 Biotium, Fremont, CA) was added to the biofilm suspensions […] and incubated (37 °C, 5 min) prior to photoactivation with a broad‐spectrum LED flood light (60 LED, 0.1 W) placed 15 cm from the tubes (mixed by inversion during the 20 min photoactivation step).48 DNA was extracted by using a microLYSIS‐Plus kit (Microzone, Haywards Heath, UK), and qPCR was performed in a Mx3005P qPCR System (Agilent Technologies).49, 50, 51 See the Tables in the Supporting Information.
as §5

[7] = test system: E. coli (ATCC 29522) biofilm; assay: Crystal violet assay, E. coli monospecies biofilm; format: cell-based, Escherichia coli; details: peptoid 100 μM, 24 h treatment of 4 h biofilm; n=3
Experimental: as §1, §2, §3

[8] = test system: C. albicans (NCTC 3179) biofilm; assay: Crystal violet assay, C. albicans monospecies biofilm; format: cell-based, Candida albicans; details: peptoid 100 μM, 24 h treatment of 4 h biofilm; n=3
Experimental: as §1, §2, §3

[9] = test system: HepG2; assay: alamarBlue cytotoxicity assay, HepG2 cells
Experimental: (§8) Peptoid cytotoxicity studies: All 18 peptoids were tested for cytotoxicity against HepG2 epithelial (Sigma–Aldrich) and HaCaT keratinocyte (ThermoFisher) cell lines, Cytotoxicity analyses were performed in Costar 96‐well plates (Thermo Fisher Scientific) with alamarBlue (Invitrogen/Thermo Fisher Scientific) for cell viability detection as described by the manufacturer. HepG2 and HaCaT cells were grown at 37 °C under CO2 (5 %) in DMEM (high glucose) supplemented with heat‐inactivated foetal bovine sera (FBS, 10 %; Biosera, Uckfield, UK) and penicillin/streptomycin (1 %). Cells were counted in a Neubauer Improved Haemocytometer. HepG2 or HaCaT cells were seeded 24 h prior to treatment in 96‐well plates (2×10^4 cells per well in 100 μL). After 24 h, cells were incubated in triplicate with a dilution series of compound (2–100 μM from 5 mM stock solutions in DMSO) in the medium (50 μL) for 1 h. An aliquot (40 μL) was removed from each well, before the addition of medium (90 μL) followed by incubation for 24 h (37 °C, 5 % CO2). Then, alamarBlue (10 μL) was added to each well before incubation (2 h for Hep G2, 1 h for HaCaT) prior to assessing cell viability in a fluorescent plate reader (Biotek, Winooski, VT; λ ex=560 nm, λ em=600 nm). All data were measured in triplicate on a minimum of two occasions.
(§9) Toxicity was determined using an alamarBlue® cytotoxicity assay.

[10] = test system: C. albicans in polymicrobial biofilm with S. aureus; assay: PMA-qPCR, C. albicans within C. albicans-S. aureus polymicrobial biofilm; format: cell-based, Candida albicans
Experimental: as §6, §4, §5

[11] = test system: C. albicans in polymicrobial biofilm with E. coli; assay: PMA-qPCR, C. albicans within C. albicans-E. coli polymicrobial biofilm; format: cell-based, Candida albicans
Experimental: as §6
as §4, with “sealed.” for “sealed. Biofilm detachment was achieved by sonication for 5 min in an ultrasonic bath (Dawe, Hayes, Middlesex, UK). The remaining cells were then collected in BHI (80 μL).”
as §7

[12] = test system: HaCaT; assay: alamarBlue cytotoxicity assay, HaCaT keratinocytes
Experimental: as §8, §9

[13] = alamarBlue viability, 2-100 μM from DMSO stock, 1 h with compound then 24 h incubation at 37 °C, fluorescence, triplicate on a minimum of two occasions

(NahNspeNspe)3 [Peptoid 17]
Efficacy against S. aureus monospecies biofilm (biomass, crystal violet) [1]: amongst the most efficacious | Reduction in viable cell number, C. albicans monospecies biofilm (PMA-qPCR) [2]: still caused a significant reduction in the fungal biofilm | Reduction in E. coli cell number in mixed biofilm with C. albicans (PMA-qPCR) ([3]; peptoid 100 μM, 24 h, n=3): the most active | Reduction in E. coli cell numbers in cross-kingdom biofilm, concentration series ([3]; peptoid 10-100 μM, PMA-qPCR): the greatest reduction in cell numbers | Reduction in viable cell number, E. coli monospecies biofilm (PMA-qPCR) [4]: the most effective | Reduction in viable cell number, S. aureus monospecies biofilm (PMA-qPCR) [5]: approximately two orders of magnitude | Reduction of cell numbers of S. aureus in mixed-species biofilm ([6]; peptoid 10 μM, 24 h): ~100% | Reduction in S. aureus cell numbers in cross-kingdom biofilm, concentration series ([6]; peptoid 10-100 μM): the greatest reduction in cell numbers | Efficacy against E. coli monospecies biofilm (biomass, crystal violet) [7]: amongst the most efficacious | Efficacy against C. albicans monospecies biofilm (biomass, crystal violet) [8]: amongst the most efficacious | ED50 HepG2 [9, 13]: > 100 µM | Toxicity to HepG2 cells (in words) ([9]; alamarBlue, up to 100 μM): negligible toxicity | Reduction in C. albicans cell number in mixed biofilm with S. aureus (PMA-qPCR) ([10]; peptoid 100 μM, 24 h, n=3): less susceptible | Reduction in C. albicans cell numbers in cross-kingdom biofilm with S. aureus, concentration series ([10]; peptoid 10-100 μM, PMA-qPCR): the greatest reduction in cell numbers | Reduction in C. albicans cell number in mixed biofilm with E. coli (PMA-qPCR) ([11]; peptoid 100 μM, 24 h, n=3): the most active | Reduction in C. albicans cell numbers in cross-kingdom biofilm with E. coli, concentration series ([11]; peptoid 10-100 μM, PMA-qPCR): the greatest reduction in cell numbers | ED50 HaCaT [12, 13]: > 100 µM | Toxicity to HaCaT cells (in words) ([12]; alamarBlue, up to 100 μM): negligible toxicity
